{
  "source": "patent US20080260845A1",
  "about": "“MULTIPLE ACTIVE DRUG RESIN CONJUGATE” (priority 2003, published 2008)",
  "experiment": "In vitro drug release (dissolution) of codeine/chlorpheniramine resin conjugate suspension",
  "assay_type": "physicochemical",
  "protocol": "The dissolution testing shown in Tables I and II was conducted using a release medium of hydrochloric acid, sodium chloride, and sodium dodecylsulfate. […] The dissolution profile for chlorpheniramine, shown in Table II, also is even and predictable, for example, at the initial testing, 42 percent dissolution of chlorpheniramine at 1 hour, 65 percent at 3 hours, 78 percent at 6 hours, and 88 percent at 12 hours.\nFurther, Tables I and II show even, predictable drug release data at one and one half months, 3 months, 6 months, and 9 months, with only very minor variations. […] Thus, with aging of the product, the release profile is consistent, allowing use of the present invention in compliance with various stability requirements for pharmaceutical products.",
  "key": {"[1]": {"details": "1-Hour, Initial, HCl/NaCl/sodium dodecylsulfate medium"}},
  "data": [
    {"smiles": "CN(C)CCC(c1ccc(Cl)cc1)c1ccccn1", "note": "(stereo not shown) [Chlorpheniramine, chlorpheniramine]", "values": [
      {"measurement": "Chlorpheniramine Release", "setting": "1-Hour, 1.5M, 4O C. aging", "value": 41, "unit": "%"},
      {"measurement": "Chlorpheniramine Release", "setting": "1-Hour, 3M, 4O C. aging", "value": 43, "unit": "%"},
      {"measurement": "Chlorpheniramine Release", "setting": "1-Hour, 3M, 25 C. aging", "value": 43, "unit": "%"},
      {"measurement": "Chlorpheniramine Release", "setting": "1-Hour, 6M, 4O C. aging", "value": 39, "unit": "%"},
      {"measurement": "Chlorpheniramine Release", "setting": "1-Hour, 6M, 25 C. aging", "value": 41, "unit": "%"},
      {"measurement": "Chlorpheniramine Release", "setting": "1-Hour, 9M, 25 C. aging", "value": 42, "unit": "%"},
      {"measurement": "Chlorpheniramine Release", "setting": "[1]", "value": "1-Hour 42%"},
      {"measurement": "Chlorpheniramine Release", "setting": "1-Hour, Initial, HCl/NaCl/sodium dodecylsulfate medium, listed as chlorpheniramine", "value": 42, "unit": "%"},
      {"measurement": "Chlorpheniramine Release", "setting": "3-Hour, 1.5M, 4O C. aging", "value": 63, "unit": "%"},
      {"measurement": "Chlorpheniramine Release", "setting": "3-Hour, 3M, 4O C. aging", "value": 65, "unit": "%"},
      {"measurement": "Chlorpheniramine Release", "setting": "3-Hour, 3M, 25 C. aging", "value": 64, "unit": "%"},
      {"measurement": "Chlorpheniramine Release", "setting": "3-Hour, 6M, 4O C. aging", "value": 62, "unit": "%"},
      {"measurement": "Chlorpheniramine Release", "setting": "3-Hour, 6M, 25 C. aging", "value": 63, "unit": "%"},
      {"measurement": "Chlorpheniramine Release", "setting": "3-Hour, 9M, 25 C. aging", "value": 63, "unit": "%"},
      {"measurement": "Chlorpheniramine Release", "setting": "3-Hour, Initial", "value": "3-Hour 65%"},
      {"measurement": "Chlorpheniramine Release", "setting": "3-Hour, Initial, listed as chlorpheniramine", "value": 65, "unit": "%"},
      {"measurement": "Chlorpheniramine Release", "setting": "6-Hour, 1.5M, 4O C. aging", "value": 77, "unit": "%"},
      {"measurement": "Chlorpheniramine Release", "setting": "6-Hour, 3M, 4O C. aging", "value": 78, "unit": "%"},
      {"measurement": "Chlorpheniramine Release", "setting": "6-Hour, 3M, 25 C. aging", "value": 77, "unit": "%"},
      {"measurement": "Chlorpheniramine Release", "setting": "6-Hour, 6M, 4O C. aging", "value": 76, "unit": "%"},
      {"measurement": "Chlorpheniramine Release", "setting": "6-Hour, 6M, 25 C. aging", "value": 76, "unit": "%"},
      {"measurement": "Chlorpheniramine Release", "setting": "6-Hour, 9M, 25 C. aging", "value": 77, "unit": "%"},
      {"measurement": "Chlorpheniramine Release", "setting": "6-Hour, Initial", "value": "6-Hour 78%"},
      {"measurement": "Chlorpheniramine Release", "setting": "6-Hour, Initial, listed as chlorpheniramine", "value": 78, "unit": "%"},
      {"measurement": "Chlorpheniramine Release", "setting": "12-Hour, 1.5M, 4O C. aging", "value": 87, "unit": "%"},
      {"measurement": "Chlorpheniramine Release", "setting": "12-Hour, 3M, 4O C. aging", "value": 90, "unit": "%"},
      {"measurement": "Chlorpheniramine Release", "setting": "12-Hour, 3M, 25 C. aging", "value": 88, "unit": "%"},
      {"measurement": "Chlorpheniramine Release", "setting": "12-Hour, 6M, 4O C. aging", "value": 87, "unit": "%"},
      {"measurement": "Chlorpheniramine Release", "setting": "12-Hour, 6M, 25 C. aging", "value": 87, "unit": "%"},
      {"measurement": "Chlorpheniramine Release", "setting": "12-Hour, 9M, 25 C. aging", "value": 88, "unit": "%"},
      {"measurement": "Chlorpheniramine Release", "setting": "12-Hour, Initial", "value": "12-Hour 88%"},
      {"measurement": "Chlorpheniramine Release", "setting": "12-Hour, Initial, listed as chlorpheniramine", "value": 88, "unit": "%"}
    ]},
    {"smiles": "COc1ccc2c3c1O[C@H]1[C@@H](O)C=C[C@H]4[C@@H](C2)N(C)CC[C@@]341", "note": "[Codeine, codeine]", "values": [
      {"measurement": "Codeine Release", "setting": "1-Hour, 1.5M, 4O C. aging", "value": 55, "unit": "%"},
      {"measurement": "Codeine Release", "setting": "1-Hour, 3M, 4O C. aging", "value": 56, "unit": "%"},
      {"measurement": "Codeine Release", "setting": "1-Hour, 3M, 25 C. aging", "value": 54, "unit": "%"},
      {"measurement": "Codeine Release", "setting": "1-Hour, 6M, 4O C. aging", "value": 54, "unit": "%"},
      {"measurement": "Codeine Release", "setting": "1-Hour, 6M, 25 C. aging", "value": 54, "unit": "%"},
      {"measurement": "Codeine Release", "setting": "1-Hour, 9M, 25 C. aging", "value": 54, "unit": "%"},
      {"measurement": "Codeine Release", "setting": "[1]", "value": "1-Hour 54%"},
      {"measurement": "Codeine Release", "setting": "1-Hour, Initial, HCl/NaCl/sodium dodecylsulfate medium, listed as codeine", "value": 54, "unit": "%"},
      {"measurement": "Codeine Release", "setting": "3-Hour, 1.5M, 4O C. aging", "value": 77, "unit": "%"},
      {"measurement": "Codeine Release", "setting": "3-Hour, 3M, 4O C. aging", "value": 77, "unit": "%"},
      {"measurement": "Codeine Release", "setting": "3-Hour, 3M, 25 C. aging", "value": 75, "unit": "%"},
      {"measurement": "Codeine Release", "setting": "3-Hour, 6M, 4O C. aging", "value": 77, "unit": "%"},
      {"measurement": "Codeine Release", "setting": "3-Hour, 6M, 25 C. aging", "value": 75, "unit": "%"},
      {"measurement": "Codeine Release", "setting": "3-Hour, 9M, 25 C. aging", "value": 75, "unit": "%"},
      {"measurement": "Codeine Release", "setting": "3-Hour, Initial", "value": "3-Hour 75%"},
      {"measurement": "Codeine Release", "setting": "3-Hour, Initial, listed as codeine", "value": 75, "unit": "%"},
      {"measurement": "Codeine Release", "setting": "6-Hour, 1.5M, 4O C. aging", "value": 88, "unit": "%"},
      {"measurement": "Codeine Release", "setting": "6-Hour, 3M, 4O C. aging", "value": 88, "unit": "%"},
      {"measurement": "Codeine Release", "setting": "6-Hour, 3M, 25 C. aging", "value": 86, "unit": "%"},
      {"measurement": "Codeine Release", "setting": "6-Hour, 6M, 4O C. aging", "value": 87, "unit": "%"},
      {"measurement": "Codeine Release", "setting": "6-Hour, 6M, 25 C. aging", "value": 85, "unit": "%"},
      {"measurement": "Codeine Release", "setting": "6-Hour, 9M, 25 C. aging", "value": 86, "unit": "%"},
      {"measurement": "Codeine Release", "setting": "6-Hour, Initial", "value": "6-Hour 86%"},
      {"measurement": "Codeine Release", "setting": "6-Hour, Initial, listed as codeine", "value": 86, "unit": "%"},
      {"measurement": "Codeine Release", "setting": "12-Hour, 1.5M, 4O C. aging", "value": 95, "unit": "%"},
      {"measurement": "Codeine Release", "setting": "12-Hour, 3M, 4O C. aging", "value": 95, "unit": "%"},
      {"measurement": "Codeine Release", "setting": "12-Hour, 3M, 25 C. aging", "value": 93, "unit": "%"},
      {"measurement": "Codeine Release", "setting": "12-Hour, 6M, 4O C. aging", "value": 94, "unit": "%"},
      {"measurement": "Codeine Release", "setting": "12-Hour, 6M, 25 C. aging", "value": 93, "unit": "%"},
      {"measurement": "Codeine Release", "setting": "12-Hour, 9M, 25 C. aging", "value": 94, "unit": "%"},
      {"measurement": "Codeine Release", "setting": "12-Hour, Initial", "value": "12-Hour 93%"},
      {"measurement": "Codeine Release", "setting": "12-Hour, Initial, listed as codeine", "value": 93, "unit": "%"}
    ]}
  ]
}
